Measured values as given in PubChem BioAssay (NCI).
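Step 1: Grow cells in 96-well plates. Step 2: Expose to compound for 48 hours at 5 concentrations. Step 3: Interpolate endpoints linearly; if unreached, use highest concentration. TGI: concentration producing complete growth inhibition.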

Key:
Assay in all cases: NCI tumour cell line growth inhibition, 48 h
OVCAR-4 ovarian = test system: OVCAR-4 ovarian
SNB-19 CNS = test system: SNB-19 CNS
SK-OV-3 ovarian = test system: SK-OV-3 ovarian
A549 NSCLC = test system: A549 NSCLC
OVCAR-3 ovarian = test system: OVCAR-3 ovarian
SN12C renal = test system: SN12C renal
MDA-N = test system: MDA-N
LOX IMVI melanoma = test system: LOX IMVI melanoma
T-47D breast = test system: T-47D breast
U251 CNS = test system: U251 CNS

SMILES | TGI (OVCAR-4 ovarian) | TGI (SNB-19 CNS) | TGI (SK-OV-3 ovarian) | TGI (A549 NSCLC) | TGI (OVCAR-3 ovarian) | TGI (SN12C renal) | TGI (MDA-N) | TGI (LOX IMVI melanoma) | TGI (T-47D breast) | TGI (U251 CNS)
COc1ccc(/C=C2\CN(C)Cc3c2[nH]c(=O)c(C#N)c3-c2ccc(OC)cc2)cc1 | > 100 µM | > 100 µM | > 100 µM | > 100 µM | > 100 µM | > 100 µM | > 100 µM | > 100 µM | > 100 µM | > 100 µM
CCS(=O)(=O)c1c2cc(OC)ccc2nc2ccc(OC)cc12 | > 100 µM | > 100 µM | > 100 µM | > 100 µM | > 100 µM | > 100 µM | > 100 µM | > 100 µM | > 100 µM | > 100 µM
CC(=N\N=C\c1ccccn1)/C(C)=N/N=C(C)/C(C)=N/N=C(C)/C(C)=N/N=C/c1ccccn1 | > 100 µM | > 100 µM | > 100 µM | > 100 µM | > 100 µM | > 100 µM | > 100 µM | > 100 µM | > 100 µM | > 100 µM
CCOC(=O)N(C)C1(c2ccccc2)CCN(CCCC(=O)c2ccc(F)cc2)CC1 | > 100 µM | 0.835 µM | > 100 µM | > 100 µM | > 100 µM | > 100 µM | 41.5 µM | 42.3 µM | > 100 µM | > 100 µM
NCCCCNC1(c2cc3ccccc3s2)CCCCC1 | 20.5 µM | 21.1 µM | 28 µM | 20.5 µM | 9.28 µM | 25.1 µM | 3.39 µM | 4.03 µM | 5.23 µM | 5.49 µM
O=C(C#Cc1cn(C2CC(O)C(CO)O2)c(=O)[nH]c1=O)c1ccccc1 (centres undefined) | > 100 µM | > 100 µM | > 100 µM | > 100 µM | 37.7 µM | > 100 µM | > 100 µM | > 100 µM | 36.7 µM | > 100 µM
COc1ccc(C2(C3c4cc(OC)c(OC)cc4CCN3C)SCCCS2)cc1O (centres undefined) | > 100 µM | > 100 µM | > 100 µM | > 100 µM | > 100 µM | > 100 µM | > 100 µM | > 100 µM | > 100 µM | > 100 µM
O=C(CCCn1ccnc1[N+](=O)[O-])NCCn1ccnc1[N+](=O)[O-] | > 100 µM | > 100 µM | > 100 µM | > 100 µM | > 100 µM | > 100 µM | > 100 µM | > 100 µM | > 100 µM | > 100 µM
Nc1c(S(=O)(=O)O)cc(Nc2cccc(S(=O)(=O)/C=C/S(=O)(=O)O)c2)c2c1C(=O)c1ccccc1C2=O | > 100 µM | > 100 µM | > 100 µM | > 100 µM | > 100 µM | > 100 µM | > 100 µM | > 100 µM | > 100 µM | > 100 µM
O=c1[nH]c2ccccc2c2oc(-c3ccccc3)nc12 | > 100 µM | 80.8 µM | > 100 µM | > 100 µM | > 100 µM | 43.4 µM | 46.6 µM | 50.6 µM | > 100 µM | 60.8 µM
CCOc1cc(C2SCC(=O)N2c2nc3cc4sc(N5C(=O)CSC5c5ccc(O)c(OCC)c5)nc4cc3s2)ccc1O (centres undefined) | > 100 µM | > 100 µM | > 100 µM | > 100 µM | > 100 µM | > 100 µM | > 100 µM | > 100 µM | > 100 µM | > 100 µM
Cc1cc(N=C2C=C(Nc3cc(C)on3)C(=O)c3ccccc32)no1 | > 100 µM | > 100 µM | > 100 µM | > 100 µM | > 100 µM | > 100 µM | 4.02 µM | > 61.5 µM | > 100 µM | > 95.1 µM
CS(=O)(=O)O.[Ag] | 9.43 µM | 78.7 µM | 36.4 µM | 33.8 µM | 88.5 µM | 38.7 µM | 19.9 µM | 73.9 µM | 5.5 µM | 30.6 µM
Nc1nc2cc(CNc3ccc(C(=O)NC(CCC(=O)O)C(=O)O)cc3)ccc2nc1-c1ccccc1 (centres undefined) | > 10 µM | > 10 µM | > 10 µM | > 10 µM | > 10 µM | > 10 µM | > 10 µM | > 10 µM | > 10 µM | > 10 µM
O=C(OCc1ccccc1)N1c2cc([N+](=O)[O-])ccc2C(=O)N2CCC[C@H]2C1O (some centres undefined) | > 100 µM | > 100 µM | > 100 µM | > 100 µM | > 100 µM | > 100 µM | > 100 µM | > 100 µM | > 100 µM | > 100 µM
NC(=O)NCCCC(NC(=O)OCCCCCn1ccc(=O)[nH]c1=O)C(=O)O (centres undefined) | > 100 µM | > 100 µM | > 100 µM | > 100 µM | > 100 µM | > 100 µM | > 100 µM | > 100 µM | > 100 µM | > 100 µM
C[C@H](CCC1=NCCN1)[C@H]1CC[C@H]2[C@@H]3CC[C@@H]4C[C@H](O)CC[C@]4(C)[C@H]3C[C@H](O)[C@]12C | 33.6 µM | 21 µM | 31.9 µM |  | 24.5 µM | 34 µM | 31 µM | 29.3 µM | 30.6 µM | 23.7 µM
